Assay results: patent publication US6370478B1, “Methods for drug interaction prediction using biological response profiles” (Rosetta Inpharmatics, Inc., priority 1998, dated 2002)

Legend:
[1] = system: Yeast (Saccharomyces cerevisiae, Strain YPH499) mRNA transcripts; assay: Yeast mRNA response profiles measured with DNA microarrays (transcript measurement); format: cell-based
Experimental: Experimental methods were described in Marton et al., 1998, Drug Target Validation And Identification of Secondary Drug Target Effects Using DNA Microarrays, NATURE-MEDICINE 4:1293-301, incorporated herein by reference for all purposes. Dose response curves are plotted only for about 50 genes with the largest responses. […] In this case, any concentration near or above about 1 μg/ml would be informative, and the choice could be refined based on knowledge of the significance of the set of genes that responds at the higher concentrations.
The following experimental methods were used for all the examples. Specific experimental design is described by the examples and their accompanying figures. The specific protocol was also described in Marton et al., 1998, Drug Target Validation And Identification of Secondary Drug Target Effects Using DNA Microarrays, NATURE-MEDICINE 4:1293-301.
Yeast (Saccharomyces cerevisiae, Strain YPH499, see, Sikorski and Hieter, 1989, A system of shuttle vectors and yeast host strains designated for efficient manipulation of DNA in Saccharomyces cerevisiae, Genetics 122:19-27) cells were grown in YAPD at 30° C. to an OD600 of 1.0 (±0.2), and total RNA prepared by breaking cells in phenol/chloroform and 0.1 % SDS by standard procedures (Ausubel et al., 1995, Current Protocols in Molecular Biology, Greene Publishing and Wiley-Interscience, New York, Ch. 13). Poly(A)^+ RNA was selected by affinity chromatography on oligo-dT cellulose (New England Biolabs) essentially as described in Sambrook et al. (Molecular Cloning—A Laboratory Manual (2nd Ed.), Vol. 1, Cold Spring Harbor Laboratory, Cold Spring Harbor, N.Y., 1989). […]
Fluorescently-labeled cDNAs (2-6 μg) are resuspended in 4×SSC plus 1 μg/μl tRNA as carrier and filtered using […] filters (Millipore, Bedford, Mass.). […] Microarrays were scanned with a fluorescence laser-scanning device as previously described (Schena et al., 1995, Science 270:467-470; Schena et al., 1995, Proc. Natl. Acad. Sci. USA 93:[…]) and the results (including the positions of perturbations) are recorded.

[2] = system: wild type yeast cells; conditions: 10 micrograms/ml; Gari et al., 1997; cited from earlier work

Structure (SMILES): Clc1ccccc1C(c1ccccc1)(c1ccccc1)n1ccnc1 [Clotrimazole]
- relationship of the response profiles of Clotrimazole and Cyclosporin A ([1]; FIG. 4, overlap with effects of opposite sign): anti-correlation

Structure (SMILES): C=CC[C@@H]1/C=C(\C)C[C@H](C)C[C@H](OC)[C@H]2O[C@@](O)(C(=O)C(=O)N3CCCC[C@H]3C(=O)O[C@H](/C(C)=C/[C@@H]3CC[C@@H](O)[C@H](OC)C3)[C@H](C)[C@@H](O)CC1=O)[C@H](C)C[C@@H]2OC [FK506]
- concentration at which genes mediated by the primary target (calcineurin) reach saturation response ([1]; FIG. 1, dose response of about 50 genes with the largest responses): about 1 μg/ml
- correlation coefficient between the two drug response profiles ([1]; FK506 (1.6 μg/ml) vs Cyclosporin A (30 μg/ml), genes with significant up and down regulations at the 95% confidence level, FIG. 3): 0.86

Structure (SMILES): C[C@H]1c2cccc(O)c2C(=O)C2=C(O)[C@]3(O)C(=O)C(C(N)=O)=C(O)[C@@H](N(C)C)[C@@H]3[C@@H](O)[C@@H]21 [doxycycline]
- effect on the growth rate [2]: no significant effect
